Laboratory results taken from publication PMC11191402, “High-Affinity NIR-Fluorescent Inhibitors for Tumor Imaging via Carbonic Anhydrase IX” (Bioconjugate Chemistry, 2024).

How the values were obtained:
human recombinant CAXII = target: T1, human recombinant CAXII (Homo sapiens, UniProt O43570); test: Fluorescence-based thermal shift assay (FTSA), CAXII; format: binding; settings: 37 °C, pH 7.0
T1 construct: Most isozymes were truncated, and only the catalytic domains of the proteins were produced; made in house; host or cells: bacterial expression system
Protocol: (§1) The binding affinities of the four NIR-fluorescent compounds to 12 catalytically active recombinant CA isozymes were determined by the fluorescence-based thermal shift assay (FTSA), and the dissociation constants (Kd’s) at physiological pH (pH 7.0) and 37 °C are listed in Table 1.
(§2) All 12 catalytically active human CA isozymes were prepared recombinantly as previously described. Most isozymes were truncated, and only the catalytic domains of the proteins were produced.[9],[56] All isozymes were expressed in a bacterial expression system except that CAIX was expressed in mammalian cells. The proteins were chromatographically purified via immobilized metal affinity chromatography, ion-exchange, or p-aminomethylbenzenesulfonamide-sepharose affinity chromatography. Protein purity was confirmed by SDS-PAGE, and MW was confirmed by mass spectrometry with 1 Da precision, as predicted from theoretical protein sequence.
(§3) The fluorescence-based thermal shift assay (FTSA) was used to determine the binding affinity of compounds for all catalytically active CA isozymes. The assay is based on the thermal stabilization of proteins by bound ligands and distinguishes itself in its ability to determine extremely high affinity (picomolar Kd) of compound binding to CAIX. The experiments were performed with a QIAGEN Rotor-Gene Q instrument using either the blue channel (365 ± 20 nm excitation and 460 ± 15 nm emission detection) or the green channel (470 ± 10 nm excitation and 510 ± 5 nm detection). The protein solution, in the absence and presence of various compound concentrations ranging from 3 to 200 μM (2× dilutions), was heated from 25 to 99 °C (heating rate, 1 °C/min). The CA isozyme melting temperature Tm was determined by following the fluorescence of 8-anilino-1-naphthalenesulfonate (ANS) or Glomelt dye. The samples consisted of 5 μM protein (or 10 μM CAIV), different concentrations of the tested compound, and 50 μM ANS or 200× diluted Glomelt in 50 mM sodium phosphate buffer (at pH 7.0) containing 100 mM sodium chloride and 2–4% (v/v) dimethyl sulfoxide. To obtain the dissociation constant (at 37 °C), data analysis was performed, and the curves were fit using the Thermott Web server.[57]

[1] = target: T2, CAIX expressed on cell membranes of HeLa cells (Homo sapiens, UniProt Q16790); test: Fluorescence microscopy staining of live HeLa cells; format: cell-based; settings: for staining of HeLa cells (NIR fluorescence microscopy): 250 nM compound, pCMV-CAIX-transfected cells, normoxia
T2 construct: an open reading frame for the full-length CAIX protein (1–459 amino acids) without a tag; expressed in transfected cells; host or cells: HeLa cells transfected with pCMV-CAIX (TurboFect), normoxia
Description: Live HeLa cell culture was used for visualization of the NIR-fluorescent compound binding to CAIX expressed on cell membranes (Figures 3 and S2). […] Hypoxic conditions were insufficient for CAIX-specific fluorescence detection (Figure S3). Transfected cells expressed 10-fold more CAIX protein than cells grown under hypoxia, as determined by dosing the fluorescein-containing compound GZ19-32. […] We should point out that microphotographs in Figures 3 and S2 were taken at different exposure times to ensure good visualization quality. Nevertheless, all four compounds were suitable for direct visualization of CAIX expressed on transfected cell membranes.
For visualization of CAIX in live cells, HeLa cells were seeded in 12-well plates, and the next day they were transfected with the pCMV-CAIX plasmid to induce CAIX expression under normoxia. The TurboFect Transfection Reagent (Thermo Fisher) was used for this purpose according to manufacturer’s directions. Cells were stained and visualized next day after transfection. Nontransfected cells, grown under normoxia, were used as a control. For the induction of CAIX expression without transfection, cells were cultured under hypoxia for 3 days.
For cell imaging, live cells were incubated with the recombinant monoclonal antibody to CAIX (M75) (Absolute Antibody, #Ab00414–1.1) in the CO2 incubator for 30 min. The antibody stock solution (1 mg/mL) was used at a dilution of 1:150 in FluoroBright (FB)(Thermo Fisher) medium. After washing (3 × 5 min with DMEM in RT, gentle rock), cells were incubated with secondary Alexa Fluor 488 goat antimouse antibodies (2 mg/mL, Thermo Fisher), at a dilution of 1:200 in FB, in a CO2 incubator for 30 min. After washing (3 × 5 min with DMEM in RT and 2 × 1 min with PBS), cells were incubated with NIR-fluorescent inhibitors ([…] in PBS) in a CO2 incubator for 5–8 min. After washing (2 min + 2 × 1 min with PBS), PBS was replaced by FB, and 15 μL of NucBlue Live Cell Stain ReadyProbes reagent (Thermo Fisher) was added per well. After 5 min, cells were observed and photographed using an automated fluorescence microscope EVOS FL Auto (Thermo Fisher).

[2] = target: T3, cell-expressed CAIX (HeLa cells grown under hypoxia) (Homo sapiens, UniProt Q16790); test: Competition assay with fluorescein-labeled GZ19-32 in live hypoxia-grown HeLa cells; format: binding; settings: 10 nM GZ19-32, Pt 2 nM CAIX
T3 construct: The cells were grown under hypoxia and not transfected; endogenous in cells; host or cells: HeLa cells, 3 days under hypoxia, not transfected
Protocol: Hypoxia-grown HeLa cell culture expressed approximately 2 nM CAIX, which was quantified by fluorescein-labeled GZ19-32 added at a constant concentration of 10 nM throughout the assay. The four NIR-fluorescent compounds were dosed and competed with the GZ19-32 compound in a dose-dependent manner. At high concentrations, all four compounds fully outcompeted the fluorescein-bearing compound yielding nice competition curves (Figure 2B). Each curve was fit using the total protein CAIX (Pt) value of 2 nM, and the Kd of GZ19-32 was 200 pM. The dissociation constants for each NIR-fluorescent compound were 4 nM for GZ21-19, 6 nM for GZ22-1, 1.5 nM for GZ22-4, and 15 nM for AZ21-6. Thus, compound affinities were similar but not identical, despite having identical headgroups. […] The affinity of fluorescein-bearing GZ19-32 was the highest of all, around 200 pM.
For the competition assay, live cells were seeded in 12-well plates and incubated for 3 days under hypoxia. 200 μL of serially diluted NIR-fluorescent compound (12 2-fold dilution steps) in the PBS medium, starting from 5120 nM (5120, 2560, 1280,..., 0 nM), was mixed with 200 μL of 20 nM GZ19-32 solution (PBS). After the removal of growth medium, 200 μL obtained solutions were applied to the cells grown in 12-well culture plates. Plates were incubated in the CO2 incubator at normoxia for 20 min. The solution was removed, and cells were washed 3 times for 1–2 min with 400 μL of PBS. Then, 180 μL of TrypLe express enzyme (Thermo Fisher) was added to each well and incubated in the normoxia chamber for 10 min. Then, 20 μL of Defined Trypsin Inhibitor solution (Thermo Fisher) was added and cells were resuspended by pipetting. 150 μL of the suspension from each well was transferred to Thermo Scientific Nunc MicroWell 96-Well Optical-Bottom Plates for fluorescence and absorbance measurements. 485 nm excitation and 520 nm emission wavelengths were used to measure fluorescence on a Synergy HTX, BioTek plate reader. 650 nm wavelength was used for absorbance measurements.

human recombinant CAXIV = target: T4, human recombinant CAXIV (Homo sapiens, UniProt Q9ULX7); test: Fluorescence-based thermal shift assay (FTSA), CAXIV; format: binding; settings: 37 °C, pH 7.0
T4 construct: Most isozymes were truncated, and only the catalytic domains of the proteins were produced; made in house; host or cells: bacterial expression system
Protocol: as §1, §2, §3

T4 sequence (Q9ULX7 20-278 limits assumed): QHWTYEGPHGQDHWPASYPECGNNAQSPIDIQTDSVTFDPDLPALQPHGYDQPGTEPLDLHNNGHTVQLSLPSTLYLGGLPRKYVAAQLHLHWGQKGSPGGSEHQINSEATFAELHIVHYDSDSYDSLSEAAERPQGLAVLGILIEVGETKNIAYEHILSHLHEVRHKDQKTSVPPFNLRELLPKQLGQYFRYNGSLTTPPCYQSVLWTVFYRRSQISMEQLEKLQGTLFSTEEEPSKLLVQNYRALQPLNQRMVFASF
T1 sequence (O43570 30-289 limits assumed): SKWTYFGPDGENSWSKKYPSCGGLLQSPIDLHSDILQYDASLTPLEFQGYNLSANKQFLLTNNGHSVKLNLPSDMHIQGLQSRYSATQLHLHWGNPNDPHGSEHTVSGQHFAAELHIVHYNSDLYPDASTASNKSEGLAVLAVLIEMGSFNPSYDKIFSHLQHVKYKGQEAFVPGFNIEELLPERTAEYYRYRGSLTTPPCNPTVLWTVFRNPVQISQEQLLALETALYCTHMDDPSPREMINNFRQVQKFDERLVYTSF

| Compound | Kd (human recombinant CAXII) [nM] | staining of HeLa cells (NIR fluorescence microscopy) [1] | Kd [2] [nM] | Kd (human recombinant CAXIV) [nM] | fluorescence signal compared to the other compounds at identical exposure conditions ([1]; 250 nM, transfected HeLa, Cy7 filter) |
| --- | --- | --- | --- | --- | --- |
| CC1(C)C(/C=C/C2=C(NCCCOCCOCCOCCCNC(=O)CCC(=O)NCCS(=O)(=O)c3c(F)c(F)c(S(N)(=O)=O)c(F)c3NC3CCCCCCC3)C(=C/C=C3\N(CCCCS(=O)(=O)[O-])c4ccccc4C3(C)C)/CCC2)=[N+](CCCCS(=O)(=O)[O-])c2ccccc21.[Na+] [AZ21-6, Sodium 4-((Z)-2-((E)-2-(2-((1-((2-(Cyclooctylamino)-3,5,6-trifluoro-4-sulfamoylphenyl)sulfonyl)-4,7-dioxo-12,15,18-trioxa-3,8-diazahenicosan-21-yl)amino)-3-((E)-2-(3,3-dimethyl-1-(4-sulfonatobutyl)-3H-indol-1-ium-2-yl)vinyl)cyclohex-2-en-1-ylidene)ethylidene)-3,3-dimethylindolin-1-yl)butane-1-sulfonate] | 50 | stained the membranes of pCMV-CAIX-transfected cells | 15 | 100 | – |
| CC1(C)C(/C=C/C2=C(Oc3cccc(CC(=O)NCCCOCCOCCOCCCNC(=O)CCS(=O)(=O)c4c(F)c(F)c(S(N)(=O)=O)c(F)c4NC4CCCCCCC4)c3)C(=C/C=C3\N(CCCCS(=O)(=O)[O-])c4ccccc4C3(C)C)/CCC2)=[N+](CCCCS(=O)(=O)[O-])c2ccccc21.[Na+] [GZ21-19, Sodium 4-((Z)-2-((E)-2-(2-(3-(20-((2-(Cyclooctylamino)-3,5,6-trifluoro-4-sulfamoylphenyl)sulfonyl)-2,18-dioxo-7,10,13-trioxa-3,17-diazaicosyl)phenoxy)-3-((E)-2-(3,3-dimethyl-1-(4-sulfonatobutyl)-3H-indol-1-ium-2-yl)vinyl)cyclohex-2-en-1-ylidene)ethylidene)-3,3-dimethylindolin-1-yl)butane-1-sulfonate] | 60 | stained the membranes of pCMV-CAIX-transfected cells | 4 | 100 | – |
| CC1(C)C(/C=C/C2=C(Oc3ccc(CCC(=O)NCCCOCCOCCOCCCNC(=O)CCS(=O)(=O)c4c(F)c(F)c(S(N)(=O)=O)c(F)c4NC4CCCCCCC4)cc3)C(=C/C=C3\N(CCCCS(=O)(=O)[O-])c4ccccc4C3(C)C)/CCC2)=[N+](CCCCS(=O)(=O)[O-])c2ccccc21.[Na+] [GZ22-1, Sodium 4-((Z)-2-((E)-2-(2-(4-(21-((2-(Cyclooctylamino)-3,5,6-trifluoro-4-sulfamoylphenyl)sulfonyl)-3,19-dioxo-8,11,14-trioxa-4,18-diazahenicosyl)phenoxy)-3-((E)-2-(3,3-dimethyl-1-(4-sulfonatobutyl)-3H-indol-1-ium-2-yl)vinyl)cyclohex-2-en-1-ylidene)ethylidene)-3,3-dimethylindolin-1-yl)butane-1-sulfonate] | 200 | stained the membranes of pCMV-CAIX-transfected cells | 6 | 100 | – |
| CC1(C)C(/C=C/C2=C(Oc3ccc(CCC(=O)NCCOCCOCCOCCOCCOCCOCCOCCOCCOCCOCCOCCNC(=O)CCS(=O)(=O)c4c(F)c(F)c(S(N)(=O)=O)c(F)c4NC4CCCCCCC4)cc3)C(=C/C=C3\N(CCCCS(=O)(=O)[O-])c4ccccc4C3(C)C)/CCC2)=[N+](CCCCS(=O)(=O)[O-])c2ccccc21.[Na+] [GZ22-4, Sodium 4-((Z)-2-((E)-2-(2-(4-(43-((2-(Cyclooctylamino)-3,5,6-trifluoro-4-sulfamoylphenyl)sulfonyl)-3,41-dioxo-7,10,13,16,19,22,25,28,31,34,37-undecaoxa-4,40-diazatritetracontyl)phenoxy)-3-((E)-2-(3,3-dimethyl-1-(4-sulfonatobutyl)-3H-indol-1-ium-2-yl)vinyl)cyclohex-2-en-1-ylidene)ethylidene)-3,3-dimethylindolin-1-yl)butane-1-sulfonate] | 80 | stained the membranes of pCMV-CAIX-transfected cells | 1.5 | 90 | best fluorescence signal |
